In general, Ki refers to the equilibrium dissociation constant of an inhibitor or competing ligand from its target.

The target of this experiment is T1, Neuromedin-K receptor (Homo sapiens, UniProt P29371).
T1 sequence (P29371 whole entry): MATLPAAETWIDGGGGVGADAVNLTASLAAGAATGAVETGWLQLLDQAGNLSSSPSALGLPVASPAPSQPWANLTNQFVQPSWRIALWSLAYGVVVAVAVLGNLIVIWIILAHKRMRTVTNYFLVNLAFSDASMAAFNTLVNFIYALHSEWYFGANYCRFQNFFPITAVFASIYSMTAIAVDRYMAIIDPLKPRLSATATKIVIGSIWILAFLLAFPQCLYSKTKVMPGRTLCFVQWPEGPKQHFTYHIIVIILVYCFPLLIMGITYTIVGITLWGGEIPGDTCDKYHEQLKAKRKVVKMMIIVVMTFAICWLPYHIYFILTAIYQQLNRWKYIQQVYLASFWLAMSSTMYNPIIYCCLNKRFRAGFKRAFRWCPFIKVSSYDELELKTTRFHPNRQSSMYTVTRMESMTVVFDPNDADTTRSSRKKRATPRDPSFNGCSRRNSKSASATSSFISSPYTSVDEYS
Put plainly: [3H]SR142801 Competition Binding Assay: hNK3 receptor binding experiment were performed using [3H]SR142801 (Catalog No. TRK1035, specific activity: 74.0 Ci/mmol, Amersham, GE Healthcare UK limited, Buckinghamshire, UK) and membrane isolated from HEK293 cells transiently expressing recombinant human NK3 receptor. After thawing, the membrane homogenates were centrifuged at 48,000×g for […] at 4° C., the pellets were resuspended in the 50 mM Tris-HCl, 4 mM MnCl2, 1 μM phosphoramidon, 0.1% BSA binding buffer at pH 7.4 to a final assay concentration of 5 μg protein/well. For inhibition experiments, membranes were incubated with [3H]SR142801 at a concentration equal to KD value of radioligand and 10 concentrations of the inhibitory compound (0.0003-10 μM) (in a total reaction volume of 500 μl) for 75 min at room temperature (RT). At the end of the incubation, membranes were filtered onto unitfilter (96-well white microplate with bonded GF/C filter preincubated 1 h in 0.3% PEI+0.3% BSA, Packard BioScience, Meriden, Conn.) with a Filtermate 196 harvester (Packard BioScience) and washed 4 times with ice-cold 50 mM Tris-HCl, pH 7.4 buffer. Nonspecific binding was measured in the presence of 10 μM SB222200 for both radioligands. […]. The class given is cell membranes.

Turning to `CCN(C(=O)Oc1ccc(F)cc1)[C@@H]1CN(C(=O)C2CCN(c3ccc(C(F)(F)F)cn3)CC2)C[C@H]1c1ccc(F)c(F)c1`, the Ki was determined as 9 nM.
Consider `CCN(C(=O)Oc1ccc(F)cc1)[C@@H]1CN(C(=O)C2CCN(c3ccc(OC(C)=O)cn3)CC2)C[C@H]1c1ccc(Cl)cc1`, for which the Ki was 6 nM.

The record behind these values is ChEMBL document CHEMBL3886745, “Pyrrolidine compounds” (2016).
